Assays:
IDO enzyme = biological target: T1, IDO enzyme (Homo sapiens, UniProt P14902); assay: IDO enzyme inhibitory activity test; type: biochemical; conditions: recombinant IDO, D-Trp substrate, reading at 321 nm for 40 min
T1 construct: made in house; host or cells: E. coli BL21 (pET28a-IDO plasmid)
Description: (1) Induced Expression and Purification Method of IDO Protein
Firstly, DO gene was amplified with PCR, and the amplified PCR product was recycled. Digestion (2 h under 37° C.), gel running and recycling were carried out on the pET28a plasmid (purchased from Shanghai Baomanbio Co., Ltd.) and IDO gel with two restriction enzymes (EcoR I and Xho I). T4 ligase was connected with the product overnight, added into DH5α competence, placed on the ice for 30 min and subjected to thermal shock at 42° C. for 90 s.
BL21 which contained pET28a-IDO plasmid was shaken vigorously at 37° C. till OD600 was 0.6-0.8, added into hemin (final concentration: 40 μM) and 0.5 mM IPTG (isopropyl-3-D-IPTG) and induced under 16° C. for 20 h; after induction, thallus were collected centrifugally at 4° C. and 6,000 rpm, washed with 50 mM PBS (pH 7.5) and collected again centrifugally.
The collected thallus were suspended again with buffer solution (50 mM PBS pH 7.5). An appropriate amount of 100×PMSF was added. The thallus were disrupted with cell disruption instrument (1,400 bar) at 4° C. for three times. The split bacteria were centrifuged at 18,000×g for 45 min. The sediment was removed but supernatant was retained and filtered with a 0.45 μm film at 4° C.; the nickel column was balanced with lysis buffer (50 mM PBS pH7.5) by 3 column volumes.
The supernatant was loaded on the nickel column and washed with wash solution (50 mM PBS pH7.5, 50 mM imidazole) by 4 column volume. Finally, protein was eluted with eluant (50 mM PBS pH7.5, 250 mM imidazole); dialyzed for 6 h with dialysis solution (50 mM PBS pH7.5), concentrated, sub-packaged, quickly frozen with liquid nitrogen and stored at −80° C. for backup.
(2) Test Method for IDO Enzyme Inhibitory Activity
Firstly, the compound was diluted by triple gradient. 1 μL of each concentration was added into a 96-well plate; 50 μL of IDO Enzyme solution PBS (pH 7.5; final concentration: 50 mM) was added: 25 μL of substrate 1 (methylene blue, final concentration: […]; catalase, final concentration: 0.2 μg/L; PBS (pH 7.5; final concentration: 50 mM) mixture and 25 μL of substrate 2 (D-Trp, final concentration: 1.5 mM; sodium ascorbate, final concentration: 20 mM; PBS (pH 7.5), final concentration 50 mM) mixture were added for starting the reaction. Finally, OOD321 nm reading was carried out for 40 min.

IDO in Hela cells = biological target: T2, IDO in Hela cells (Homo sapiens, UniProt P14902); assay: Test of cellular activity (kynurenine formation in interferon γ stimulated Hela cells); type: cell-based; conditions: head prints IPS cells, method: Hela cells, 48 h incubation, read at 480 nm
T2 construct: endogenous in cells; host or cells: HeLa cells stimulated with human interferon γ
T2 sequence (P14902 whole entry): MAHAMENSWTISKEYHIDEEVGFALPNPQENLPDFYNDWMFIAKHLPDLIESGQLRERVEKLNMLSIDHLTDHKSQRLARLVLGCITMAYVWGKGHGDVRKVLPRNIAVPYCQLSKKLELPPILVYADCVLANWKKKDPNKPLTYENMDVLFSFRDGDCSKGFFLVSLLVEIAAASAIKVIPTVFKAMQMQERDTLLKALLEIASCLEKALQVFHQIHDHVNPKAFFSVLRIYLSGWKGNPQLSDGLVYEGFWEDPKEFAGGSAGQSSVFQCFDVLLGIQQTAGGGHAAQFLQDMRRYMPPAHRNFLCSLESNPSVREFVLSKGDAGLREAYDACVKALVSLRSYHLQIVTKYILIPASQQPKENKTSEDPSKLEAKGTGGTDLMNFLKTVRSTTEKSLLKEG
Description: (3) Test Method of Cellular Activity
Hela cells (80 μL) was inoculated on a 96-well plate (5×10^3 for each well) to grow overnight. After the compound was diluted the next day, 1 μL of diluent and 100 μL of culture medium which contains human interferon γ (final concentration: 50 ng/m) were added into the 96-well plate to make the final volume reach […]. After incubating for 48 h, 80 μL of supernate was transferred from each well to a new […]. 10 μL 6.1N trichloroacetic acid was added into each well for mixing and incubation at 50° C. for 30 min, and […] N formyl-kynurenin into kynurenine. The reaction mixture was centrifuged at 2,500 rpm for 10 min, 70 μL of supernatant of each well was transferred to a new 96-well plate and mixed with 100 μL of 2% (w/v) dimethylaminobenzaldehyde acetic acid solution. After placing for 5-10 min, measurement was carried out at 480 nm with the SPECTRAmax i13 reader.

T1 sequence (P14902 whole entry): as above

O=C(Nc1ccc(Cl)cc1)C1CC2(CCC(c3ccnc4ccc(F)cc34)CC2)C1 (single isomer, unassigned) [Example 15B, N-(4-chlorophenyl)-7-(6-fluoroquinolin-4-yl)spiro[3.5]nonane-2-carboxamide]
IC50 (IDO enzyme): 400 nM | IC50 (IDO in Hela cells): 2.53 nM
